Measured values reported in DBAASP.
≈ marks a conversion by molar mass, not a printed value.

What was measured:
Assay in all cases: ≥ marks a high value that may be exact or a test limit, other limits are often not marked, values filed in µg/mL are converted to µM
[1] = system: Escherichia coli ATCC 25922
[2] = system: Salmonella enterica subsp. enterica serovar Typhimurium ATCC 14028
[3] = system: Micrococcus luteus ATCC 10240
[4] = system: Pseudomonas aeruginosa ATCC 27853
[5] = system: Staphylococcus aureus ATCC 6538P
[6] = system: Shigella dysenteriae ATCC 9752
[7] = system: Staphylococcus epidermidis ATCC 12228
[8] = system: Klebsiella pneumoniae ATCC 10031
[9] = system: Staphylococcus aureus TK784
[10] = system: Bacillus subtilis ATCC 6633
[11] = system: Batrachochytrium dendrobatidis JEL-197
[12] = system: Candida albicans ATCC 90028
[13] = system: Escherichia coli ATCC 25726
[14] = system: Staphylococcus aureus ATCC 25923
[15] = system: Rhodococcus rhodochrous X15
[16] = system: Psychrobacter faecalis X29
[17] = system: Staphylococcus carnosus KHS
[18] = system: Candida albicans ATCC 2002
[19] = system: Bacillus licheniformis X39
[20] = system: Pseudomonas aeruginosa 77905
[21] = system: Pseudomonas aeruginosa 78888
[22] = system: Pseudomonas aeruginosa 78327
[23] = system: Klebsiella pneumoniae KK3 9904
[24] = system: Pseudomonas aeruginosa 78078
[25] = system: Pseudomonas aeruginosa 87104
[26] = system: Staphylococcus aureus NCTC 8325
[27] = system: Pseudomonas aeruginosa 78073
[28] = system: Pseudomonas aeruginosa 78905
[29] = system: Pseudomonas aeruginosa 77733
[30] = system: Pseudomonas aeruginosa 78887
[31] = system: Enterobacter cloacae NHTCC 53001
[32] = system: Pseudomonas aeruginosa 77319

CC(C)C[C@H](NC(=O)[C@H](CCCCN)NC(=O)[C@H](CCCCN)NC(=O)[C@H](CC(C)C)NC(=O)[C@H](CC(C)C)NC(=O)[C@H](CCCCN)NC(=O)[C@H](CCCCN)NC(=O)[C@H](CC(C)C)NC(=O)[C@H](Cc1c[nH]c2ccccc12)NC(=O)[C@H](CCCCN)NC(=O)[C@@H](N)CC(C)C)C(N)=O [LKWLKKLLKKL]
MIC [1]: 2.84 µM (≈ 4 µg/mL) | MIC [2]: 2.84 µM (≈ 4 µg/mL) | MIC [3]: 2.84 µM (≈ 4 µg/mL) | MIC [4]: 5.67 µM (≈ 7.99 µg/mL) | MIC [5]: 1.42 µM (≈ 2 µg/mL) | MIC [6]: 1.42 µM (≈ 2 µg/mL) | MIC [7]: 2.84 µM (≈ 4 µg/mL) | MIC [8]: 1.42 µM (≈ 2 µg/mL) | MIC [9]: 5.67 µM (≈ 7.99 µg/mL) | MIC [10]: 1.42 µM (≈ 2 µg/mL)

CC[C@H](C)[C@H](NC(=O)[C@H](CO)NC(=O)[C@@H]1CCCN1C(=O)[C@@H](NC(=O)[C@H](CC(C)C)NC(=O)CNC(=O)[C@@H](NC(=O)[C@H](CC(C)C)NC(=O)[C@@H](NC(=O)[C@@H]1CCCN1C(=O)[C@H](CC(C)C)NC(=O)[C@@H](N)Cc1ccccc1)C(C)C)[C@@H](C)O)[C@@H](C)O)C(=O)N[C@H](C(=O)N1CCC[C@H]1C(=O)N[C@@H](CCCCN)C(=O)N[C@@H](CC(C)C)C(=O)N[C@H](C(=O)N[C@H]1CSSC[C@@H](C(=O)O)NC(=O)[C@H](CCCCN)NC(=O)[C@H](CCCCN)NC(=O)[C@H]([C@@H](C)O)NC(=O)[C@H](CC(C)C)NC(=O)[C@H](CC(C)C)NC1=O)C(C)C)C(C)C [FLPVLTGLTPSIVPKLVCLLTKKC]
MIC [11]: ≥ 50 µM | MIC [12]: ≥ 100 µM | MIC [13]: ≥ 100 µM | MIC [14]: 50 µM (≈ 129 µg/mL)

CC[C@H](C)[C@H](NC(=O)[C@H](CCCCN)NC(=O)[C@H](CCCCN)NC(=O)[C@H](C)NC(=O)[C@H](CC(C)C)NC(=O)[C@H](CC(N)=O)NC(=O)[C@@H](NC(=O)[C@@H](NC(=O)[C@@H](NC(=O)[C@H](CC(N)=O)NC(=O)[C@H](CC(C)C)NC(=O)[C@@H](NC(=O)[C@@H](N)CC(N)=O)[C@@H](C)CC)[C@@H](C)O)[C@@H](C)CC)[C@@H](C)CC)C(=O)N[C@@H](CC(C)C)C(N)=O [NILNTIINLAKKIL]
MIC [15]: 2.4 µM (≈ 3.79 µg/mL) | MIC [16]: ≥ 37.5 µM | MIC [17]: 19 µM (≈ 30 µg/mL) | MIC [14]: 4.8 µM (≈ 7.58 µg/mL) | MIC [18]: 9.5 µM (≈ 15 µg/mL) | MIC [19]: 19 µM (≈ 30 µg/mL)

CC[C@H](C)[C@H](NC(=O)[C@H](Cc1cnc[nH]1)NC(=O)[C@H](CCCCN)NC(=O)CNC(=O)[C@H](C)NC(=O)[C@@H](NC(=O)[C@H](CCCCN)NC(=O)[C@H](CC(C)C)NC(=O)[C@@H](NC(=O)CNC(=O)[C@H](CCCCN)NC(=O)[C@H](Cc1ccccc1)NC(=O)[C@H](CC(C)C)NC(=O)[C@H](CO)NC(=O)[C@H](CCSC)NC(=O)[C@H](CC(C)C)NC(=O)CN)C(C)C)[C@@H](C)O)C(=O)N[C@@H](Cc1ccccc1)C(=O)N[C@@H](CCCCN)C(=O)N[C@@H](CC(N)=O)C(=O)N[C@H](C(=O)NCC(=O)NCC(=O)N[C@@H](CO)C(=O)N[C@@H](CC(C)C)C(=O)N[C@@H](CC(C)C)C(=O)N[C@@H](CC(=O)O)C(=O)N[C@@H](CCC(N)=O)C(=O)N[C@@H](C)C(=O)N[C@@H](CCCCN)C(=O)N[C@H]1CSSC[C@@H](C(=O)O)NC(=O)[C@H](CCC(=O)O)NC(=O)CNC(=O)[C@H]([C@@H](C)O)NC(=O)[C@H]([C@@H](C)CC)NC(=O)[C@H](CCCCN)NC1=O)C(C)C [GLMSLFKGVLKTAGKHIFKNVGGSLLDQAKCKITGEC]
MIC [1]: 6 µM (≈ 23.4 µg/mL) | MIC [20]: 6 µM (≈ 23.4 µg/mL) | MIC [21]: 12 µM (≈ 46.7 µg/mL) | MIC [4]: 3 µM (≈ 11.7 µg/mL) | MIC [22]: 6 µM (≈ 23.4 µg/mL) | MIC [23]: 6 µM (≈ 23.4 µg/mL) | MIC [24]: 12 µM (≈ 46.7 µg/mL) | MIC [25]: 6 µM (≈ 23.4 µg/mL) | MIC [12]: ≥ 100 µM | MIC [26]: 25 µM (≈ 97.3 µg/mL) | MIC [27]: 6 µM (≈ 23.4 µg/mL) | MIC [28]: 12 µM (≈ 46.7 µg/mL) | MIC [29]: 12 µM (≈ 46.7 µg/mL) | MIC [30]: 6 µM (≈ 23.4 µg/mL) | MIC [31]: 6 µM (≈ 23.4 µg/mL) | MIC [32]: 12 µM (≈ 46.7 µg/mL)
